The data set concerns S. pombe yeast cells. Nature of the data set: Respirometric assessment of viability of S. pombe yeast cells treated with toxicant (oxygen uptake, phosphorescent oxygen probe). In kind it is cell-based. To be noted: S. pombe cells incubated with different concentrations of toxicant, aliquots at different time intervals; FIG. 5. The procedure:
A solid-state oxygen probe comprising a thin film polymer coating of the phosphorescent dye platinum(II)-tetrakis(pentafluorophenyl)porphine (PtTFPP) and polycarbonate was used with the device 1 shown in FIG. 1. One milligram of PtTFPP is dissolved in 0.01% (w/v) solution of polycarbonate (M.ca. 60 000) in chloroform. One microlitre aliquotes of this solution were dispensed to the microwells and allowed to air dry for 10 minutes to produce thin film phosphorescent oxygen-sensitive coating inside the microwells.
S. pombe yeast cells were incubated with different concentrations of cadmium nitrate toxicant. Two μl aliquots were taken from each sample at different time intervals, and placed in the wells of microwell chambers coated with a PtTFPP-polycarbonate solid-state oxygen probe. The respiration profiles of samples were monitored as described in Example 1 above, together with a control sample containing the same concentration of test cells, but without the presence of a toxicant. The levels of oxygen uptake by each sample is evaluated on the basis of time profiles of the phosphorescent signal (initial slopes), compared to those obtained in the control sample. […] This could be extended to compare cells growing in the presence of necessary growth factors, undergoing survival factor deprivation, or undergoing apoptosis.

Regarding `O=[N+]([O-])[O-].O=[N+]([O-])[O-].[Cd+2]` [cadmium nitrate], the “oxygen uptake / initial slope of phosphorescent signal time profile, compared to control sample (cell viability)” value is “decrease in the initial slope and oxygen uptake with respect to control sample”.

Source of the values: US7138270B2, “Assay device and method for chemical or biological screening” (University College Cork—National University of Ireland, Cork, priority 2002, dated 2006).
